Converted amounts (≈) assume the structure as drawn.
test: Stability of the compound in water at neutral pH after 24 hrs; format: physicochemical; details: buffer

Stability | Structure (SMILES)
Stable | Cc1[nH]c2ccccc2c1C(Nc1ccccc1)c1ccccc1 (centres undefined)
Stable | Cc1[nH]c2ccccc2c1C(Nc1ccccc1)c1ccc(Cl)cc1 (centres undefined)
Stable | COc1ccc(C(Nc2ccccc2)c2c(C)[nH]c3ccccc23)cc1 (centres undefined)
Stable | Cc1ccc(C(Nc2ccccc2)c2c(C)[nH]c3ccccc23)cc1 (centres undefined)
Stable | Cc1[nH]c2ccccc2c1C(Nc1ccccc1)c1ccc(N(C)C)cc1 (centres undefined)
Stable | Cc1[nH]c2ccccc2c1C(Nc1ccccc1)c1ccc([N+](=O)[O-])cc1 (centres undefined)
Stable | Cc1[nH]c2ccccc2c1C(C)Nc1ccccc1 (centres undefined)
Stable | Cc1[nH]c2ccccc2c1C(Nc1ccccc1)c1ccc2ccccc2c1 (centres undefined)
Stable | Cc1[nH]c2ccccc2c1C(Nc1ccccc1)c1ccc(CCCO)cc1 (centres undefined)
Stable | Cc1[nH]c2ccccc2c1C(Nc1ccccc1)c1ccccc1Cl (centres undefined)
Stable | Cc1[nH]c2ccccc2c1C(Nc1ccc(Cl)cc1)c1ccccc1Cl (centres undefined)
Stable | COc1ccc(NC(c2ccccc2Cl)c2c(C)[nH]c3ccccc23)cc1 (centres undefined)
Stable | Cc1ccc(NC(c2ccccc2Cl)c2c(C)[nH]c3ccccc23)cc1 (centres undefined)
Stable | Cc1[nH]c2ccccc2c1C(Nc1ccc(N(C)C)cc1)c1ccccc1Cl (centres undefined)
Stable | Cc1[nH]c2ccccc2c1C(Nc1ccc([N+](=O)[O-])cc1)c1ccccc1Cl (centres undefined)
Stable | Cc1[nH]c2ccccc2c1C(Nc1ccc(C(F)(F)F)cc1)c1ccccc1Cl (centres undefined)
Stable | COc1ccccc1NC(c1ccccc1Cl)c1c(C)[nH]c2ccccc12 (centres undefined)
Stable | Cn1cc(C(Nc2ccccc2)c2ccccc2Cl)c2ccccc21 (centres undefined)
Stable | Clc1ccccc1C(Nc1ccccc1)c1c[nH]c2ccccc12 (centres undefined)
Stable | Cc1[nH]c2ccccc2c1C(Sc1ccccc1)c1ccccc1Cl (centres undefined)

test: Aqueous solubility of the compound in phosphate buffered saline at pH 7.4; format: physicochemical; details: buffer

solubility | Structure (SMILES)
453.9 µM (≈ 165 µg/mL) | COc1ccc(OC)c(S(=O)(=O)ON2C(=O)c3ccccc3C2=O)c1
338.8 µM (≈ 101 µg/mL) | Nc1nc2ccc(S(=O)(=O)N3CCCCC3)cc2s1
462 µM (≈ 153 µg/mL) | CCc1ccc(S(=O)(=O)ON2C(=O)c3ccccc3C2=O)cc1
218.7 µM | COC(=O)c1ccc2c(c1)C(C)(C)C(/C=C/c1ccc(O)cc1)=[N+]2C
377.4 µM (≈ 104 µg/mL) | Cc1cccc(N2COc3ccc4ccccc4c3C2)c1
0.7 µM | CCOc1ccc(/C=C/C2=[N+](C)c3ccc(C(=O)OC)cc3C2(C)C)cc1
0.2 µM | COC(=O)c1ccc(/C=C/C2=[N+](C)c3ccc(OC)cc3C2(C)C)cc1
21.9 µM (≈ 9.1 µg/mL) | CCCS(=O)(=O)c1oc(-c2cccs2)nc1S(=O)(=O)c1ccc(F)cc1
49.9 µM (≈ 19.1 µg/mL) | CCS(=O)(=O)c1oc(-c2cccs2)nc1S(=O)(=O)c1ccccc1
17.6 µM (≈ 7.56 µg/mL) | CC(C)CS(=O)(=O)c1oc(-c2cccs2)nc1S(=O)(=O)c1ccc(F)cc1
34.2 µM (≈ 13.6 µg/mL) | CC(C)S(=O)(=O)c1oc(-c2cccs2)nc1S(=O)(=O)c1ccccc1
576 µM (≈ 168 µg/mL) | Cc1c(C=O)c(C(=O)O)c(C)n1Cc1ccc(Cl)cc1
493 µM (≈ 192 µg/mL) | COCC(=O)Oc1c(Sc2ccc(Cl)cc2)c(C)nn1-c1ccccc1
487 µM (≈ 143 µg/mL) | CCCCNC(=O)Cn1sc2nc(C)cc(C)c2c1=O
273.3 µM | COc1ccc(/C=C/C2=[N+](C)c3ccc(OC)cc3C2(C)C)cc1
0.1 µM | COC(=O)c1ccc2c(c1)C(C)(C)C(/C=C/c1ccc(OC)cc1)=[N+]2C
503.4 µM (≈ 187 µg/mL) | Cc1[nH]c2ccccc2c1C(Nc1ccccc1)c1ccc(CCCO)cc1 (centres undefined)

Structure (SMILES) | solubility
O=Cc1nc2ccccc2n1Cc1ccc2ccccc2c1 | 42.1 µM (≈ 12.1 µg/mL)
O=Cc1nc2ccccc2n1Cc1ccc(Cl)cc1Cl | 15.3 µM (≈ 4.67 µg/mL)

Source: ChEMBL document CHEMBL2069300 (J Med Chem, 2012)
